One data set concerns the target T1, human IL-23R (Homo sapiens, UniProt Q5VWK5).
T1 construct: UniProtKB—Q5VWK5, amino acids 22-629; secretion signal of the plasmid (Promega N1371); expressed in transfected cells
T1 sequence (Q5VWK5 22-629): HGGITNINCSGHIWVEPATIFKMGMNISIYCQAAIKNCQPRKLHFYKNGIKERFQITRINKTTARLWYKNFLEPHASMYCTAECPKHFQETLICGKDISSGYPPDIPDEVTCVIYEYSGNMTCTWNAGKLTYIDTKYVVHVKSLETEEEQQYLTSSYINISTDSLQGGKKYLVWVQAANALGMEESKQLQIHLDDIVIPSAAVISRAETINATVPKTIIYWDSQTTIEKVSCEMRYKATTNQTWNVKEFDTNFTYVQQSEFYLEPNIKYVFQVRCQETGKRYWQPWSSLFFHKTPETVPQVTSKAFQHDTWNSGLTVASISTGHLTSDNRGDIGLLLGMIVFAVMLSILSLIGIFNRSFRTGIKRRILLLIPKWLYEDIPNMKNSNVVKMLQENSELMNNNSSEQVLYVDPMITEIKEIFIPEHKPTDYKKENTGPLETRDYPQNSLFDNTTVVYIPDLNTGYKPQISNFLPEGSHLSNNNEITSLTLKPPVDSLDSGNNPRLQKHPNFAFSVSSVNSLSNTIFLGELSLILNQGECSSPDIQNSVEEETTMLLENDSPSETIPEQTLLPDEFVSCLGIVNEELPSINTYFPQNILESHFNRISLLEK
Kind of data set: Binding assay (NanoBRET displacement of fluorophore-labelled reference compound) for estimating binding affinity to human IL-23R.

A short description of data set [1]: Peptide stability in simulated intestinal fluid (SIF). The format is in vitro ADME. The following applies: pig, Table 3-2, porcine pancreatin, pH 6.8, 37° C., 10 μM; for remaining at 1 h, 10 μM: read-out: SIF (% remaining 1 h); for remaining at 4 h, 10 μM: read-out: SIF (% remaining 4 h). The gist of the method:
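Peptides incubated at 37°C with gentle shaking in SGF (NaCl, HCl, pH 1.2) or SIF (phosphate pH 6.8 with 10 g/L porcine pancreatin). Samples analysed by LC-HRMS; percent remaining at each timepoint calculated from absolute peak areas relative to time zero.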

Data set [2] can be described thus: Peptide stability in simulated gastric fluid (SGF). The note with it: pig, Table 3-3, porcine pepsin, pH 1.2, 37° C., 10 μM; for remaining at 1 h, 10 μM: read-out: SGF (% remaining 1 h); for remaining at 4 h, 10 μM: read-out: SGF (% remaining 4 h). The format is in vitro ADME. As for the experimental part:
Determination of Peptide Stability in Simulated Gastric Fluid (SGF) and Simulated Intestinal Fluid (SIF)
SGF was prepared by dissolving sodium chloride (0.2 g) in 50 mL of water. A volume of 0.7 mL of 10 M HCl was added to adjust the pH of the solution to 1.2 and the volume made up to 100 mL with water. […] SIF was prepared by dissolving monobasic potassium phosphate (0.68 g) in 50 mL of water and adjusting the pH to 6.8 with 1 M NaOH. The volume was subsequently made up to 100 mL with water. 200 mg porcine pancreatin (P1625, Sigma Aldrich) was gently dissolved into 20 mL preheated (37° C.) solution (10 g/L) immediately prior to the incubation.
The incubation was performed at 37° C. with gentle shaking. […] After the last timepoint, the sampling plate was mixed for 10 min on a shaking table and centrifuged 10 min at 2200 g. 70 μL resulting supernatant was diluted with 150 μL water, mixed and centrifugated before analysis by liquid chromatography high resolution mass spectrometry. […] Percent remaining at each timepoint was calculated relative to timepoint zero based on absolute peak areas.

[3] abbreviates: Table 3-1, read-out: Ki hIL-23R.
[4] abbreviates: simulated intestinal fluid (SIF) with porcine pancreatin.
Setting [5] is: simulated gastric fluid (SGF) with porcine pepsin.

What is called Ki is a measure of affinity in units of concentration, obtained from inhibition or displacement. In general, share remaining refers to what is left of the initial amount, in per cent.

Structures are written as SMILES. Like-named read-outs stand apart in the source and are kept apart here. *1 amine or outer side, *2 acyl side, *3 side chain or, on linkers, in order; H or OH if unused. Where a SMILES comes first, the peptide text is derived from it. Bridges are numbered along the chain shown (N, C = ends). [ ]: non-standard residue; d: D form. αMeAla(3-pyridyl) = C[C@](N)(Cc1cccnc1)C(=O)O; Phe(3,4-Me2) = Cc1ccc(C[C@H](N)C(=O)O)cc1C; Phe(4-Cl) = N[C@@H](Cc1ccc(Cl)cc1)C(=O)O; αMeW = C[C@](N)(Cc1c[nH]c2ccccc12)C(=O)O; Phe(4-NH2) = Nc1ccc(C[C@H](N)C(=O)O)cc1; 2Nal = N[C@@H](Cc1ccc2ccccc2c1)C(=O)O; AEF = NCCOc1ccc(C[C@H](N)C(=O)O)cc1; X1 = O=C(Cc1ccc(CN[*:1])cc1)[*:2]; αMeL = CC(C)C[C@](C)(N)C(=O)O; CH2COCH2 = O=C(C[*:1])C[*:2]; αMeV = CC(C)[C@](C)(N)C(=O)O; 3Amb = NCc1cccc(C(=O)O)c1; Dab = NCC[C@H](N)C(=O)O

For the compound `CC(C)C[C@@H]1NC(=O)[C@H](Cc2c[nH]c3ccccc23)NC(=O)[C@H](Cc2c[nH]c3ccccc23)NC(=O)[C@@H]2CSCC(=O)CSC[C@H](NC(=O)[C@H](CO)NC(=O)[C@@H](NC(=O)[C@@H](N)CC(C)C)CSCC(=O)CSC[C@@H](C(=O)N[C@@H](CCCNC(=N)N)C(N)=O)NC1=O)C(=O)N[C@@H](Cc1c[nH]c3ccccc13)C(=O)N[C@@H](CCC(N)=O)C(=O)N2` [Compound 2, H-LC(1a)SC(2a)WQC(2a)WWLC(1a)R-[NH2]] (HELM PEPTIDE1{L.C.S.C.W.Q.C.W.W.L.C.R.[am]}|CHEM1{[O=C(C[*:1])C[*:2]]}|CHEM2{[O=C(C[*:1])C[*:2]]}$PEPTIDE1,CHEM1,2:R3-1:R1|PEPTIDE1,CHEM1,11:R3-1:R2|PEPTIDE1,CHEM2,4:R3-1:R1|PEPTIDE1,CHEM2,7:R3-1:R2$$$V2.0), the Ki at human IL-23R is 32.3 nM. Further, in data set [1], the fraction remaining at 1 h, 10 μM is 0% and the amount remaining at 4 h, 10 μM is 0%. In data set [2], the share remaining at 1 h, 10 μM was 6% and the amount remaining at 4 h, 10 μM was 1%.

With `CC(C)C[C@]1(C)NC(=O)[C@H](Cc2ccc3ccccc3c2)NC(=O)[C@H](Cc2ccc(OCCN)cc2)NC(=O)[C@@H]2CSCC(=O)CSC[C@H](NC(=O)[C@H](CO)NC(=O)c3cccc(c3)CNC(=O)CC[C@@H](C(=O)N[C@@H](CCCNC(=N)N)C(N)=O)NC1=O)C(=O)N[C@@H](Cc1c[nH]c3ccccc13)C(=O)N[C@@H](CCC(N)=O)C(=O)N2` [Compound 38, [(3-Aminomethyl)benzoyl](1c)*SC(2a)WQC(2a)[Y(2-aminoethoxy)][2-Nal][2-Me-Leu]E(1c)R-[NH2]] ([3Amb]SCWQC[AEF][2Nal][αMeL]ER-NH2; linker 3-6 via CH2COCH2; lactam N-10), the Ki at human IL-23R (setting [3]) was 2.56 nM. In data set [1] (setting [4]), the amount remaining at 1 h, 10 μM was 29% and the amount remaining at 4 h, 10 μM is 5%. In addition, the amount remaining at 4 h, 10 μM in data set [2] (setting [5]) is 84%.

As to `CC(C)C[C@@H]1NC(=O)[C@H](Cc2ccc3ccccc3c2)NC(=O)[C@H](Cc2ccc(OCCN)cc2)NC(=O)[C@@H]2CSCC(=O)CSC[C@H](NC(=O)[C@H](CO)NC(=O)c3cccc(c3)CNC(=O)CC[C@@H](C(=O)N[C@@H](CCCNC(=N)N)C(N)=O)NC1=O)C(=O)N[C@@H](Cc1c[nH]c3ccccc13)C(=O)N[C@@H](CCC(N)=O)C(=O)N2` [Compound 39, [(3-Aminomethyl)benzoyl](1c)*SC(2a)WQC(2a)[Y(2-aminoethoxy)][2-Nal]LE(1c)R-[NH2]] ([3Amb]SCWQC[AEF][2Nal]LER-NH2; linker 3-6 via CH2COCH2; lactam N-10), the inhibition constant Ki on human IL-23R (setting [3]) is 1.4 nM. In data set [1] (setting [4]), the amount remaining at 1 h, 10 μM was 0% and the fraction remaining at 4 h, 10 μM was 0%. Moreover, the fraction remaining at 1 h, 10 μM in data set [2] (setting [5]) is 90%.

As to `CC(C)C[C@]1(C)NC(=O)[C@H](Cc2ccc3ccccc3c2)NC(=O)[C@H](Cc2ccc(OCCN)cc2)NC(=O)[C@@H]2CSCC(=O)CSC[C@H](NC(=O)[C@H](CO)NC(=O)c3cccc(c3)CNC(=O)CC[C@@H](C(=O)N[C@@H](CO)C(N)=O)NC1=O)C(=O)N[C@@H](Cc1c[nH]c3ccccc13)C(=O)N[C@@H](CCC(N)=O)C(=O)N2` [Compound 44, [(3-Aminomethyl)benzoyl](1c)*SC(2a)WQC(2a)[Y(2-aminoethoxy)][2-Nal][2-Me-Leu]E(1c)S-[NH2]], the Ki at human IL-23R (setting [3]) was 4.87 nM. For the same compound, in data set [1] (setting [4]), the share remaining at 1 h, 10 μM was 79%. In addition, in data set [2] (setting [5]), the fraction remaining at 4 h, 10 μM was 73%.

Consider `CC(C)C[C@]1(C)NC(=O)[C@H](Cc2ccc3ccccc3c2)NC(=O)[C@H](Cc2ccc(OCCN)cc2)NC(=O)[C@@H]2CSCC(=O)CSC[C@H](NC(=O)[C@H](CO)NC(=O)c3cccc(c3)CNC(=O)CC[C@@H](C(=O)N[C@@H](Cc3ccc(N)cc3)C(N)=O)NC1=O)C(=O)N[C@@H](Cc1c[nH]c3ccccc13)C(=O)N[C@@H](CCC(N)=O)C(=O)N2` [Compound 45, [(3-Aminomethyl)benzoyl](1c)*SC(2a)WQC(2a)[Y(2-aminoethoxy)][2-Nal][2-Me-Leu]E(1c)[F(4-NH2)]-[NH2]] ([3Amb]SCWQC[AEF][2Nal][αMeL]E[Phe(4-NH2)]-NH2; linker 3-6 via CH2COCH2; lactam N-10), for which the inhibition constant (Ki) on human IL-23R (setting [3]) was 12 nM. In addition, in data set [1] (setting [4]), the amount remaining at 4 h, 10 μM was 34%. Moreover, in data set [2] (setting [5]), the fraction remaining at 1 h, 10 μM is 76% and the fraction remaining at 4 h, 10 μM was 84%.

`CC(C)C[C@H]1NC(=O)[C@H](Cc2ccc3ccccc3c2)NC(=O)[C@H](Cc2ccc(OCCN)cc2)NC(=O)[C@@H]2CSCC(=O)CSC[C@H](NC(=O)[C@H](CO)NC(=O)c3cccc(c3)CNC(=O)CC[C@@H](C(=O)N[C@@H](Cc3ccc(O)cc3)C(N)=O)NC1=O)C(=O)N[C@@H](Cc1c[nH]c3ccccc13)C(=O)N[C@@H](CCC(N)=O)C(=O)N2` [Compound 46, [(3-Aminomethyl)benzoyl](1c)*SC(2a)WQC(2a)[Y(2-aminoethoxy)][2-Nal][{d}L]E(1c)Y-[NH2]] ([3Amb]SCWQC[AEF][2Nal][dL]EY-NH2; linker 3-6 via CH2COCH2; lactam N-10): the Ki at human IL-23R (setting [3]) is 48.2 nM. In data set [1] (setting [4]), the share remaining at 1 h, 10 μM is 9% and the share remaining at 4 h, 10 μM is 0%. Moreover, in data set [2] (setting [5]), the fraction remaining at 1 h, 10 μM was 83% and the amount remaining at 4 h, 10 μM was 66%.

Consider `CC[C@H](C)[C@@H]1NC(=O)Cc2ccc(cc2)CNC(=O)CC[C@@H](C(=O)N[C@@H](CCN)C(=O)N[C@@](C)(Cc2cccnc2)C(N)=O)NC(=O)[C@](C)(C(C)C)NC(=O)[C@H](Cc2ccc(C)c(C)c2)NC(=O)[C@H](Cc2ccc(Cl)cc2)NC(=O)[C@@H]2CCNC(=O)CC[C@H](NC1=O)C(=O)N[C@@H](Cc1c[nH]c3ccccc13)C(=O)N[C@@H](CCC(N)=O)C(=O)N2` [Compound 171, [4-Aminomethyl-phenylacetyl](1c)*IE(2c)WQ[Dab](2c)[F(4-Cl)][F(3,4-Me)][2-Me-Val]E(1c)[Dab][2-Me-3-(3-Pyridyl)-Ala]-[NH2]] ([X1]IEWQ[Dab][Phe(4-Cl)][Phe(3,4-Me2)][αMeV]E[Dab][αMeAla(3-pyridyl)]-NH2; lactam 3-6, N-10), for which the fraction remaining at 4 h, 10 μM is 68% in data set [1] (setting [4]) and 75% in data set [2] (setting [5]).

`CC[C@H](C)[C@@H]1NC(=O)Cc2ccc(cc2)CNC(=O)CC[C@@H](C(=O)N[C@@H](CCN)C(=O)N[C@@](C)(Cc2cccnc2)C(N)=O)NC(=O)[C@](C)(C(C)C)NC(=O)[C@H](Cc2ccc(C)c(C)c2)NC(=O)[C@](C)(Cc2c[nH]c3ccccc23)NC(=O)[C@@H]2CCNC(=O)CC[C@H](NC1=O)C(=O)N[C@@H](Cc1c[nH]c3ccccc13)C(=O)N[C@@H](CCC(N)=O)C(=O)N2` [Compound 172, [4-Aminomethyl-phenylacetyl](1c)*IE(2c)WQ[Dab](2c)[alpha-Me-Trp][F(3,4-Me)][2-Me-Val]E(1c)[Dab][2-Me-3-(3-Pyridyl)-Ala]-[NH2]] ([X1]IEWQ[Dab][αMeW][Phe(3,4-Me2)][αMeV]E[Dab][αMeAla(3-pyridyl)]-NH2; lactam 3-6, N-10): the figures for the fraction remaining at 4 h, 10 μM in data set [1] (setting [4]) and in data set [2] (setting [5]) were 70% and 99%, respectively.

Regarding `CC(=O)N[C@H]1CCSC[C@@H](C(=O)N[C@@H](Cc2ccc(OCCN)cc2)C(=O)N[C@@H](Cc2c[nH]c3ccccc23)C(=O)N[C@@](C)(CCCCN)C(=O)N[C@@H](CCC(=O)O)C(=O)N[C@@H](CC(N)=O)C(=O)NCC(N)=O)NC(=O)[C@H](CCC(N)=O)NC(=O)[C@H](Cc2c[nH]c3ccccc23)NC(=O)[C@H]([C@@H](C)O)NC(=O)[C@H](CCC(N)=O)NC1=O` [Compound C, [Ac]-[Abu](16i)QTWQC(16i)[Y(2-aminoethoxy)]W[2-Me-Lys]ENG-[NH2], reference compound], the amount remaining at 1 h, 10 μM was 92% in data set [1] (setting [4]) and 100% in data set [2] (setting [5]). In data set [1] (setting [4]), the share remaining at 4 h, 10 μM is 76%.

The record behind these values is patent US20250154198A1, “PEPTIDE INHIBITORS OF INTERLEUKIN-23 RECEPTOR” (Zealand Pharma A/S, priority 2021, published 2025).
